Laboratory results as given in US6040331A, “Nerve cell protective agents” (Mochida Pharmaceutical Co., Ltd., priority 1996, dated 2000).
≈ marks a conversion by molar mass, not a printed value.

Columns and labels:
[1] = tested on: cerebral ischemic animal models; conditions: in vivo; cited from earlier work
hippocampus = conditions: Bode et al., cited from earlier work
[2] = tested on: pyramidal cells in the hippocampus CA1 region; assay: Effectiveness in gerbil model of delayed neuronal death (damage score, 4 min ischemia); assay type: in vivo; conditions: carotid arteries 5 min before ischemia, score 0-4
Experimental: (§1) Specifically, the cervical part of a gerbil under anesthesia by halothane inhalation was incised along the median line to expose the carotid artery on both sides, which were occuluded with clips for 4 min and thereafter brought back to patency. After suturing the incised part, the anesthetization was turned off and the animal was brought back to keeping under normal condition. Three days after loading of cerebral ischemia, the gerbil was anesthetized by administering pentobarbital, fixed by transcardiac formalin perfusion and had the brain isolated. A coronary slice including the fimbria hippocampi was prepared from the isolated brain and stained with Cresyl Violet. The pyramidal cells in the hippocampus CA1 region were examined under an optical microscope and the degree of damage was rated by the following scores: 0, no damage; 1, slight damage; 2, moderate damage; 3, significant damage; 4, total damage. Each test compound was administered through the carotid arteries 5 min before ischemia.

[3] = tested on: formalin induced pain reaction; assay: Effectiveness in formalin induced paw pain test; assay type: in vivo, mouse; conditions: for Suppression of pain reaction, Second phase / Suppression of pain reaction, First phase: oral, 30 min before formalin; for Suppression of pain reaction, Second phase: from 10 min to 45 min; for Suppression of pain reaction, First phase: within 10 min after induction
Experimental: The effectiveness of compounds in a formalin induced pain test was studied in accordance with the method of Shibata et al., Pain, 38, 347, 1989.
Specifically, the left hind paw of a mouse was injected subcutaneously with 25 μl of a 0.5% formalin solution and the duration of time for which the mouse licked and bit the treated foot starting just after the injection was measured with a stopwatch; the measured times were integrated for every 5 minutes and recorded. The formalin induction caused a characteristic biphase pain reaction; the pain recognized within 10 min after the induction was categorized as a first-phase pain reaction and the pain recognized from 10 min to 45 min as a second-phase reaction. The test compounds were administered orally 30 min before the injection of formalin. The percent suppression of the formalin induced pain reaction by each test compound was determined by the following formula:
100×(PRcontrol-PRtest)/(PRcontrol) (%)
where PRtest is the time (sec) of pain reaction in a group administered with both formalin and the test compound and PRcontrol is the time (sec) of pain reaction in a control group subjected to formalin induction.

[4] = tested on: pyramidal cells in the hippocampus CA1 region; assay: Effectiveness in gerbil model of delayed neuronal death (pyramidal cell count, 3 min ischemia); assay type: in vivo; conditions: carotid arteries 5 min before ischemia, ischemic control 58 ± 22, non-ischemic 249 ± 10, mean ± standard error, hydrochloride
Experimental: as §1, with “The action of compounds to suppress the death of neurons in vivo was studied by the method of Murase et al., Neurosci. Lett., 149, 229, 1993 which was adapted from the method of Kirino et al., Brain Res., 239, 57, 1982. Specifically,” for “Specifically,”, “3” for “4”, “Seven” for “Three”, “counted” for “examined”, “microscope.” for “microscope and the degree of damage was rated by the following scores: 0, no damage; 1, slight damage; 2, moderate damage; 3, significant damage; 4, total damage.”

mice (ICR) = assay: Acute toxicity test; assay type: in vivo, mouse; conditions: 100 mg/kg, intraperitoneal, 7-day observation, 3 animals per group
[5] = tested on: neurons isolated from the cerebrum; assay: Naturally occurring neuronal death suppressing action (serum-free cultivation, Crystal Violet); assay type: cell-based, embryonic day 16 rats; conditions: Rattus norvegicus, Neuron, 72 h; 1.0 μg/ml; serum-free, 3 days; read-out: Suppression of Naturally Occurring Neuronal Death
Experimental: The action of compounds to suppress the naturally occurring death of neurons was evaluated in terms of their effectiveness in suppressing or inhibiting the naturally occurring death of neurons as induced by exposing cultured neurons to serum-free cultivation conditions. An experiment was run by a method adapted from the method of Shimojo et al., Neurosci. Lett., 151, 170, 1993. Specifically, neurons were isolated from the cerebrum of embryonic day 16 rats in the usual manner, suspended in a DMEM/F12 medium containing 1% fetal bovine serum, seeded onto a polylysine-coated culture plate at a density of 5×10^4 cells per square centimeter and cultivated at 37° C. in 95% air+5% CO2. After one day of culture, the medium was replaced with a serum-free medium containing a compound to be tested and the cultivation was continued for 3 more days. Subsequently, the cells were fixed with 1% glutaraldehyde and their number was determined by calorimetric quantification using Crystal Violet (Anal. Biochem., 182, 16-19, 1989). The percent suppression of neuronal death by the test compound was determined by the following formula:
(§2) 100×(ODtest-ODcontrol)/(ODnormal-ODcontrol) (%)
where ODtest is the number of cells (absorbance) in the group of addition of test compound after serum removal, ODcontrol is the number of cells (absorbance) in a control group after serum removal, and ODnormal is the number of cells (absorbance) in a control (normal) group without serum removal.

cerebral infarction = assay: Effectiveness in rat model of permanent occlusion of middle cerebral artery; assay type: in vivo; conditions: 10 mg/kg, tail vein, 10 min after occlusion; 24 h; control 14.7 ± 0.8; mean ± standard error; ** p < 0.01 vs control group
Excerpt: The therapeutic effect of compounds against cerebral infarction was studied in accordance with the method of Tamura et al., J. Cereb. Blood Flow Metab., 1, 53, 1981.
Specifically, a hole was made transorbitally in part of the cranial bone of a rat under anesthesia by halothane inhalation to expose the origin of the middle cerebral artery. Then, using a bipolar coagulator, the middle cerebral arteries were burnt to coagulate for permanent occlusion. The operative site was sutured and after the anesthetization was turned off, the animal was brought back to keeping under normal condition. Twenty-four hours after loading of cerebral ischemia, the rat was decapitated and the brain was isolated. The isolated brain was cut at a predetermined site to prepare five coronary slices. The infarct area of each section was rendered visible by staining with 2,3,5-triphenyltetrazolium chloride (TTC) and quantitated with an image analyzer. A test compound was administered through the tail vein 10 min after the occlusion of the middle cerebral arteries and comparison was made with a control group administered with a solvent alone.

[6] = tested on: neurons isolated from the cerebrum; assay: Veratrine-induced neuronal death suppressing action (MTT); assay type: cell-based, embryonic day 16 rats; conditions: Rattus norvegicus, Neuron; veratrine 0.35 mM; MTT after 24 h; probit method; read-out: IC50 (50% suppression of veratrine-induced neuronal death)
Experimental: The action of compounds to suppress the death of neurons induced by veratrine was evaluated in terms of their effectiveness in suppressing the neuronal death as induced by direct addition of veratrine. An experiment was run by a method adapted from the method of Powells et al., J. Pharmacol. Exp. Therapeutics, 255, 1117, 1987. Specifically, neurons were isolated from the cerebrum of embryonic day 16 rats in the usual manner, suspended in a MEM medium containing 10% fetal bovine serum, seeded onto a polylysine-coated culture plate at a density of 2.5×10^5 cells per square centimeter and cultivated at 37° C. in 95% air+5% CO2. Starting on the fifth day of cultivation, treatment was conducted with 10 μM of cytosine arabinoside for 2 days and the cultivation was continued until the 12th day, when a test was run as follows. The cells were treated with a buffer solution containing veratrine (0.35 mM) and a test compound, replaced in a serum-containing medium and cultivated for another 24 h. Subsequently, the number of viable cells was determined by calorimetric quantification using 3-(4,5-dimethylthiazol-2-yl)-2,5-diphenyltetrazolium bromide (MTT). The percent suppression of neuronal death by the test compound was determined by the following formula:
as §2
where ODtest is the number of cells (absorbance) in the group of addition of veratrine+test compound, ODcontrol is the number of cells (absorbance) in a control group of addition of veratrine, and ODnormal is the number of cells (absorbance) in a control (normal) group without addition of veratrine.
In addition, IC50 values indicating the effectiveness in achieving 50% suppression of neuronal death were calculated by the probit method on the basis of the result from more than one concentration.

[7] = 10 mg/kg, ** p < 0.01 vs ischemic control group

## O=c1[nH]c2cc(-n3ccnc3)c([N+](=O)[O-])cc2[nH]c1=O [YM90K]
[1]
  effectiveness in cerebral ischemic animal models (in words): effective

## CCCN(CCC)C1Cc2c[nH]c3ccc(OC)c(c23)C1 (stereo not shown) [BAY-R-1531]
hippocampus; Stroke, 21, 1990
  effect on damage to the hippocampus of gerbils after brain ischemia (in words): effective for damage to the hippocampus of gerbils after brain ischemia
hippocampus; serotonin-like action
  dose of protective effect relative to dose altering patterns of behavior (in words): the protective effect of the compound was only recognized at a by far higher dose than the one that caused altered patterns of behavior due to a serotonin-like action

## Cl.Fc1ccccc1-c1[nH]c2cccc3c2c1CCC3N1CCOCC1 (stereo not shown) [Example 232, 2-(2-fluorophenyl)-5-morpholino-1,3,4,5-tetrahydrobenz[cd]indole hydrochloride]
[2]; 10 mg/kg, ischemic control 3.5 ± 0.4, mean ± standard error (Table 3-2)
  Score of damage to hippocampus CA1: 2.5 ± 0.7
[3]; 200 mg/kg
  Suppression of pain reaction, Second phase: 100%
  Suppression of pain reaction, First phase: 51%

## Cl.Fc1ccccc1-c1[nH]c2cccc3c2c1CCC3N1CCOCC1 (single isomer, unassigned; (+)) [Example 247, (+)-2-(2-fluorophenyl)-5-morpholino-1,3,4,5-tetrahydrobenz[cd]indole hydrochloride]
[4]; 2.5 mg/kg
  Pyramidal cell count in hippocampus CA1: 96 ± 31 cells/mm
[4]; [7]
  Pyramidal cell count in hippocampus CA1: 83 ± 35 cells/mm

## CC(C)=CCN1CCC2(C)c3cc(O)ccc3CC1C2C (stereo not shown) [pentazocine, reference compound]
[3]; 10 mg/kg, subcutaneous
  suppression of the first-phase pain reaction: 61%
  suppression of the second-phase pain reaction: 40%

## O=C(O)[C@@H]1C[C@H](CP(=O)(O)O)CCN1 (relative stereo) [selphotel]
[1]
  effectiveness in cerebral ischemic animal models (in words): effective

## C[C@]12N[C@H](Cc3ccccc31)c1ccccc12 [dizocilpine]
[1]
  effectiveness in cerebral ischemic animal models (in words): effective

## Cc1ccc(-c2nc(C)c(CN3CCN(C(c4ccccc4)c4ccccc4)CC3)[nH]2)cc1 [lifarizine]
[1]
  effectiveness in cerebral ischemic animal models (in words): effective

## Cl.Fc1ccccc1-c1[nH]c2cccc3c2c1CCC3N1CCOCC1 (single isomer, unassigned; (-)) [Example 248, (-)-2-(2-fluorophenyl)-5-morpholino-1,3,4,5-tetrahydrobenz[cd]indole hydrochloride]
[4]; 2.5 mg/kg
  Pyramidal cell count in hippocampus CA1: 87 ± 29 cells/mm
[4]; [7]
  Pyramidal cell count in hippocampus CA1: 206 ± 14 cells/mm

## Cl.Cn1c(-c2ccccc2)c2c3c(cccc31)C(N1CCOCC1)CC2 (stereo not shown) [Example 237, 1-methyl-5-morpholino-2-phenyl-1,3,4,5-tetrahydrobenz[cd]indole hydrochloride]
[3]; 100 mg/kg
  Suppression of pain reaction, Second phase: 97%
  Suppression of pain reaction, First phase: 63%

## CN1CCN(c2ncc(-c3cc(Cl)cc(Cl)c3Cl)c(N)n2)CC1 [BW619C89]
[1]
  effectiveness in cerebral ischemic animal models (in words): effective

## NC1CCc2c(-c3ccccc3)[nH]c3cccc1c23 (stereo not shown) [Example 81, 5-amino-2-phenyl-1,3,4,5-tetrahydrobenz[cd]indole]
Mice (ICR)
  death (acute toxicity): no case of death was found
[5]
  inhibition at 1 µg/mL: 51%
Cerebral infarction
  Weight of infarction: 9.3 ± 1.5%
[6]
  IC50: 3.2 µg/mL (≈ 12.9 µM)
[2]; 10 mg/kg, ischemic control 2.9 ± 0.3, mean ± standard error (Table 3-1)
  Score of damage to hippocampus CA1: 0.1 ± 0.1

## NC1CCc2c(-c3ccccc3)[nH]c3c(Cl)ccc1c23 (stereo not shown) [Example 86, 5-amino-8-chloro-2-phenyl-1,3,4,5-tetrahydrobenz[cd]indole]
Mice (ICR)
  death (acute toxicity): no case of death was found
[2]; 5 mg/kg, ischemic control 2.9 ± 0.3, mean ± standard error (Table 3-1)
  Score of damage to hippocampus CA1: 1.8 ± 0.1
